The source of these data is patent US6509358B2, “Piperidino-phenyl amino squarate and thiadiazole dioxide beta-3 adrenergic receptor agonists” (Wyeth, priority 2000, dated 2003).

For one data set, the target named is T1, human β3-AR (Homo sapiens, UniProt P13945).
T1 construct: Full-length β3-AR clones (402 amino acids) containing the last 6 amino acids of hβ3-AR; expressed in transfected cells; host or cells: CHO cells
Nature of the data set: cAMP accumulation (SPA) in CHO cells transfected with human β3-AR. The settings on record: for EC50: CHO cells transfected with human β3-AR, cAMP, 30 min at 37° C., 10^-9 M to 10^-5 M; for IA(β3): maximal response of compound relative to maximal response of isoproterenol at 10^-5 M. It counts as cell-based. The procedure:
Binding to the receptors was measured in Chinese Hamster ovary (CHO) cells that were transfected with β1-, β2-, and β3-AR's. The following briefly summarizes the procedures used and results obtained. Cloning of Human β3-AR Genomic DNA: cDNA was constructed by ligating four polymerase chain reaction (PCR) products using the following primers: an ATG-Narl fragment, sense primer [NT] and anti-sense primer [NT]; a […] fragment, [NT] as sense and [NT] as anti-sense primer; an […] fragment, sense primer [NT] and anti-sense primer [NT] and a Styl-TAG fragment, with sense primer [NT] and anti-sense primer [NT]. The corresponding primer sequences are described in Mantzoros, C. S., et.al., Diabetes, 1996, 45, 909-914. The four fragments are ligated into a pUC 18 plasmid (Gibco-BRL) and sequenced. Full-length β3-AR clones (402 amino acids) containing the last 6 amino acids of hβ3-AR are prepared with the β3-β[…]3 from ATTC. Binding Procedure: Clones expressing receptor levels of 70 to 110 fmoles/mg protein were used in the test procedures. CHO cells were grown in 24-well tissue culture plates in Dulbecco's Modified Eagle Media with 10% fetal bovine serum, MEM non-essential amino acids, Penicillin-Streptomycin and Geneticin. On the day of test procedure, growth medium was replaced with preincubation media (Dulbecco's Modified Eagle Media) and incubated for 30 minutes at 37° C. […] Isoproterenol (10^-5 M) was used as an internal standard for comparison of activity. Cells were incubated at 37° C. on a rocker for 30 min with the β3-AR transfected cells and 15 min with β1-AR and β2-AR transfected cells. Incubation was stopped by the addition of 0.2N HCl and the acid was neutralized with 2.5N NaOH. The plates, containing the cells and neutralized media, were stored at -20 ° C. until ready to test for cAMP using the SPA test kit (Amersham). Data Analysis and Results: Data collected from the SPA test procedure were analyzed as percent of the maximal isoproterenol response at 10^-5 M. Activity curves were plotted using the SAS statistical and graphics software. […] IA=% activity compound % activity isoproterenol
For orientation: cAMP levels reflect the balance of adenylyl cyclase and phosphodiesterase activity.

T1 sequence (P13945 whole entry): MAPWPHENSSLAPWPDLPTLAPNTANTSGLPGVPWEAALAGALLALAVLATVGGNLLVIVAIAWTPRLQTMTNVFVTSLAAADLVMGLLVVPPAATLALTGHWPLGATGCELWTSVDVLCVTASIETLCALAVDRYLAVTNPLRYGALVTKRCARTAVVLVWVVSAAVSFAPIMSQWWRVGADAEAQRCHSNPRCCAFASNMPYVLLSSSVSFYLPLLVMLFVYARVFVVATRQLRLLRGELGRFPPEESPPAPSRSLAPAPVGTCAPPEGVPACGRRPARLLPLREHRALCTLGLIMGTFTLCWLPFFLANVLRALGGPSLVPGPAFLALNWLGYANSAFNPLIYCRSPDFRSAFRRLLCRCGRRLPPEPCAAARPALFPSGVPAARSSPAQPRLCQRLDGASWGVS

Regarding `CCCCCCCCNC1=NS(=O)(=O)N=C1Nc1ccc(N2CCC(NC[C@H](O)COc3ccc(O)cc3)CC2)cc1` [Example 4, 4-((2S)-2-Hydroxy-3-{1-[4-(4-octylamino-1,1-dioxo-1H-1.lambda(6)-[1,2,5]thiadiazol-3ylamimo)-phenyl]-piperidin-4-ylamino}-propoxy)-phenol], the melting point (usually the temperature of the solid-liquid transition) is 198 to 204 °C. At human β3-AR, the EC50 (as a rule, the midpoint of the concentration-response curve) turned out to be 4 nM and the “IA(β3)” value came to 0.96.
Regarding `COC(=O)[C@@H](Cc1ccccc1)Nc1c(Nc2ccc(N3CCC(NC[C@H](O)c4ccc(O)c(NS(C)(=O)=O)c4)CC3)cc2)c(=O)c1=O` [Example 2, Methyl (2R)-2-{[2-(4-{4-[((2R)-2-hydroxy-2-{4-hydroxy-3-[(methylsulfonyl)amino]phenyl}ethyl)amino]piperidin-1-yl}anilino)-3,4-dioxocyclobut-1-en-1-yl]amino}-3-phenylpropanoate], at human β3-AR, a half-maximal response (EC50) required 200 nM and the “IA(β3)” value amounted to 0.80.
Take `COC(=O)CNC1=NS(=O)(=O)N=C1Nc1ccc(N2CCC(NC[C@H](O)c3ccc(O)c(NS(C)(=O)=O)c3)CC2)cc1` [Example 3, Methyl {[4-(4-{4-[((2R)-2-hydroxy-2-{4-hydroxy-3-[(methylsulfonyl)amino]phenyl}ethyl)amino]piperidin-1-yl}anilino)-1,1-dioxido1,2,5-thiadiazol-3-yl]amino}acetate]: the melting point is 120 °C (dec.). In addition, on human β3-AR, the half-maximal effective concentration (EC50) amounted to 99 nM and the “IA(β3)” value is 0.40.
Turning to `COC(=O)C(Cc1ccccc1)NC1=NS(=O)(=O)N=C1Nc1ccc(N2CCC(NCC(O)c3ccc(O)c(NS(C)(=O)=O)c3)CC2)cc1` [Example 6, Methyl 2-{[4-(4-{4-[((2R)-2-hydroxy-2-{4-hydroxy-3-[(methylsulfonyl)amino]phenyl}ethyl)amino]piperidin-1-yl}anilino)-1,1-dioxido-1,2,5-thiadiazol-3-yl]amino}-3-yl]amino}-3-phenylpropanoate], at human β3-AR, the EC50 turned out to be 42 nM and the “IA(β3)” value was determined as 0.9.
In the case of `COC(=O)[C@@H](Cc1ccccc1)Nc1c(Nc2ccc(N3CCC(NC[C@H](O)c4ccc(O)c(NS(C)(=O)=O)c4)CC3)cc2)c(=O)c1=O` (hydrate or solvate) [Example 2, Methyl (2R)-2-{[2-(4-{4-[((2R)-2-hydroxy-2-{4-hydroxy-3-[(methylsulfonyl)amino]phenyl}ethyl)amino]piperidin-1-yl}anilino)-3,4-dioxocyclobut-1-en-1-yl]amino}-3-phenylpropanoate], the melting point is 240 °C (dec.).
Regarding `COC(=O)C(Cc1ccccc1)NC1=NS(=O)(=O)N=C1Nc1ccc(N2CCC(NCC(O)c3ccc(O)c(NS(C)(=O)=O)c3)CC2)cc1` (hydrate or solvate) [Example 6, Methyl 2-{[4-(4-{4-[((2R)-2-hydroxy-2-{4-hydroxy-3-[(methylsulfonyl)amino]phenyl}ethyl)amino]piperidin-1-yl}anilino)-1,1-dioxido-1,2,5-thiadiazol-3-yl]amino}-3-yl]amino}-3-phenylpropanoate], the melting point was 210 °C (dec.).
Turning to `COc1ccc(CCNC2=NS(=O)(=O)N=C2Nc2ccc(N3CCC(NC[C@H](O)COc4ccc(O)cc4)CC3)cc2)cc1` [Example 1], on human β3-AR, the EC50 is 633 nM and the “IA(β3)” value worked out at 0.69.
The matching figures for `O=S1(=O)N=C(NCCc2ccc(F)cc2)C(Nc2ccc(N3CCC(NC[C@H](O)COc4ccc(O)cc4)CC3)cc2)=N1` [Example 5, 4-((2S)-3-[1-(4-{4-[2-(4-Fluoro-phenyl)-ethylamino]-1,1-dioxo-1H-1.lambda(6).-[1,2,5]thiadiazol-3-ylamino}-phenyl)-piperidin-4-ylamino]-2-hydroxy-propoxy}-phenol]: 8 nM and 1.0.
